{"source": "ChEMBL document CHEMBL5241062", "about": "“Recent advances of dual FGFR inhibitors as a novel therapy for cancer” (Eur J Med Chem, 2021)", "key": {"[1]": {"molecular_target": "T1, Fibroblast growth factor receptor 1 (Homo sapiens, UniProt P11362)", "T1 sequence (P11362 whole entry)": "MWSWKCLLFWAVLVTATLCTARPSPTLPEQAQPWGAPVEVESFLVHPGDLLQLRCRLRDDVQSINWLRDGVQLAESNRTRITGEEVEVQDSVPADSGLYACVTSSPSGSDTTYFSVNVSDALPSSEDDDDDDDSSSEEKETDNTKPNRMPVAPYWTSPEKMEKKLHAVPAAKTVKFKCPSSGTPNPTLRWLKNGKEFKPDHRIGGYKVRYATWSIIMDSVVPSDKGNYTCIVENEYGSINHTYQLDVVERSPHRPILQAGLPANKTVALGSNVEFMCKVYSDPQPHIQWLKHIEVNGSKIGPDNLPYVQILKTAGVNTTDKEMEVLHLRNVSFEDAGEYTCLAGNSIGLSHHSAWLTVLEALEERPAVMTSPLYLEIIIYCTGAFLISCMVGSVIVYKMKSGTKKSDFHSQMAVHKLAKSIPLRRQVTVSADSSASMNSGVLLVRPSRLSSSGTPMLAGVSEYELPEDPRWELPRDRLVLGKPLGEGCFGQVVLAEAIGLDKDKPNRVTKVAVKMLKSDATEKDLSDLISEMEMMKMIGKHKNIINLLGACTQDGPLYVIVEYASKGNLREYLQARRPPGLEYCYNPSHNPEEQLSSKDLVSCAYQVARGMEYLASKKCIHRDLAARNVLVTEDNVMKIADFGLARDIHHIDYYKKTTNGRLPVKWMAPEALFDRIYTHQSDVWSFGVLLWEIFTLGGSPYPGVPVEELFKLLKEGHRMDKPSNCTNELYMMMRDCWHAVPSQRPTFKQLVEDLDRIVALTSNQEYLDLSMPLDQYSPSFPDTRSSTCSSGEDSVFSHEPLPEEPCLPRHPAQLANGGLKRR", "assay": "Inhibition of FGFR1 (unknown origin) by Z'-LYTE Kinase assay"}, "[2]": {"molecular_target": "T2, Fibroblast growth factor receptor 3 (Homo sapiens, UniProt P22607)", "T2 sequence (P22607 whole entry)": "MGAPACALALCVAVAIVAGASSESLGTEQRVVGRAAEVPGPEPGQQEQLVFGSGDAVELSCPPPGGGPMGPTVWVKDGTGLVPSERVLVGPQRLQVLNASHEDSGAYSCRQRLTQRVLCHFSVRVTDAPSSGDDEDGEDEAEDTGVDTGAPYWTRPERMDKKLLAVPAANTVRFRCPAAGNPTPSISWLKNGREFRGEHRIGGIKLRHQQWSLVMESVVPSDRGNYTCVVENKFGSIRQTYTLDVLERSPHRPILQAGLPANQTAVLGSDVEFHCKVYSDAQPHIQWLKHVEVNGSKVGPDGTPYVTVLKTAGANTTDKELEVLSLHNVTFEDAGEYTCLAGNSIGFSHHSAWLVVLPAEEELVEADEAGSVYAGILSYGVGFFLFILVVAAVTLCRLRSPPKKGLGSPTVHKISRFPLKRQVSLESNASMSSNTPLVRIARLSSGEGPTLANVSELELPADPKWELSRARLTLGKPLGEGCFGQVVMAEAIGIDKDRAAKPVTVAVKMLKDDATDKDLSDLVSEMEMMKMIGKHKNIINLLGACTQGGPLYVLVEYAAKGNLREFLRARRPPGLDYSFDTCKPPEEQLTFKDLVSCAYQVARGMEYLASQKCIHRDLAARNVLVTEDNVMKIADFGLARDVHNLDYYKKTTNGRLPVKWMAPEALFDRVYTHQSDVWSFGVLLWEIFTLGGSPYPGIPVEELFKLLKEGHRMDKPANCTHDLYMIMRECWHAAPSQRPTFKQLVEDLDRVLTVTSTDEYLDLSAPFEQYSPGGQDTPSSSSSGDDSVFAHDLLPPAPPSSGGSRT", "assay": "Inhibition of FGFR3 (unknown origin) by Z'-LYTE Kinase assay"}, "[3]": {"molecular_target": "T3, Fibroblast growth factor receptor 4 (Homo sapiens, UniProt P22455)", "T3 sequence (P22455 whole entry)": "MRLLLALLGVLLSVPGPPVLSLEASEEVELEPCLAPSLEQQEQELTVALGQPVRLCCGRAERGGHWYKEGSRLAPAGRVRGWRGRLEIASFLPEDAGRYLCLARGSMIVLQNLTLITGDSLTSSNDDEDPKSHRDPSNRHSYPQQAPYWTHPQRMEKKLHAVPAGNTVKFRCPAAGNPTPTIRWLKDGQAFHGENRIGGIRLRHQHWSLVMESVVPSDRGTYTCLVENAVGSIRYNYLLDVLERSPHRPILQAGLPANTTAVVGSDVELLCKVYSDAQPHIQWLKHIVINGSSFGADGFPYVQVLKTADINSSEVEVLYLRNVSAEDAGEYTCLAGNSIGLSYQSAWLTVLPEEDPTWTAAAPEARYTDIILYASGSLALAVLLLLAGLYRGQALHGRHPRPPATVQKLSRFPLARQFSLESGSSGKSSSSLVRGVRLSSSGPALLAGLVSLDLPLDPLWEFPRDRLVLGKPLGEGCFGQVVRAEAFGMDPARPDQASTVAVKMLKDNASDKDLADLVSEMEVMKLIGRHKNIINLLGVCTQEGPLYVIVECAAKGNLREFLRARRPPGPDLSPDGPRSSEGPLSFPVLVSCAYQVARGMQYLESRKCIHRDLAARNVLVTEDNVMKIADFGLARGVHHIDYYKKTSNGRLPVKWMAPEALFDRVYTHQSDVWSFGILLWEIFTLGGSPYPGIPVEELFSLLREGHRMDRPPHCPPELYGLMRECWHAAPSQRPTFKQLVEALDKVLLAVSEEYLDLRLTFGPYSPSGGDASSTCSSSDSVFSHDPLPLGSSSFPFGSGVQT", "assay": "Inhibition of FGFR4 (unknown origin) by Z'-LYTE Kinase assay"}, "[4]": {"molecular_target": "T4, Fibroblast growth factor receptor 2 (Homo sapiens, UniProt P21802)", "T4 sequence (P21802 whole entry)": "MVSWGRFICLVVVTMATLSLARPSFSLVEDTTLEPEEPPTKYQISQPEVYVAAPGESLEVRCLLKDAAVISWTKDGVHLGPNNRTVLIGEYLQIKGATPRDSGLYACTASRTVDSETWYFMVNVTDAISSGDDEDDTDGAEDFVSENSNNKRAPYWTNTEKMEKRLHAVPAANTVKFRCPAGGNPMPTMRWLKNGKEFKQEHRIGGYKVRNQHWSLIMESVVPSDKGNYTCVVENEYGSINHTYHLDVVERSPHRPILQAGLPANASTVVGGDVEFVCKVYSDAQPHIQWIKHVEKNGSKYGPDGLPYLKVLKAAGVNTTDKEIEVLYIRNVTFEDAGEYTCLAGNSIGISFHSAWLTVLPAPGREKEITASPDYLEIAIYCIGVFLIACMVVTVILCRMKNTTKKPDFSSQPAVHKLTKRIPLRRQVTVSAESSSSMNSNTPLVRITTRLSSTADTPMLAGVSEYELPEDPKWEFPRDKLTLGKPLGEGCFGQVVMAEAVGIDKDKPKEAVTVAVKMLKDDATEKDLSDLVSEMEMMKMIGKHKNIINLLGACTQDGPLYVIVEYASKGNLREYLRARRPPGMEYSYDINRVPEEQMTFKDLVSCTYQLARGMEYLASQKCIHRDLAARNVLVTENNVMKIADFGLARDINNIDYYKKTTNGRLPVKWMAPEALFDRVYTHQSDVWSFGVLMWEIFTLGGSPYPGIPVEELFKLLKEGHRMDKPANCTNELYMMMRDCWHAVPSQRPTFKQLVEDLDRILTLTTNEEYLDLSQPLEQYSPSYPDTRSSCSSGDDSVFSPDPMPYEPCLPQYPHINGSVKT", "assay": "Inhibition of FGFR2 (unknown origin) by Z'-LYTE Kinase assay"}, "[5]": {"molecular_target": "T5, Epidermal growth factor receptor (Homo sapiens, UniProt P00533)", "assay": "Inhibition of EGFR (unknown origin) by Z'-LYTE Kinase assay"}, "NCI-H1581": {"test_system": "NCI-H1581", "assay": "Antitumor activity against human NCI-H1581 cells assessed as tumor growth inhibition at 50 mg/kg, po administered for 14 days relative to control", "format": "functional", "details": "NCI-H1581, 336 h, time 14 day, read-out: TGI"}, "[6]": {"molecular_target": "T3, Fibroblast growth factor receptor 4", "assay": "Inhibition of FGFR4 (unknown origin) using biotin as substrate incubated for 1 hrs in the presence of ATP by HTRF assay"}, "[7]": {"molecular_target": "T5, Epidermal growth factor receptor", "assay": "Inhibition of EGFR (unknown origin) using biotin as substrate incubated for 1 hrs in the presence of ATP by HTRF assay"}, "[8]": {"molecular_target": "T6, Vascular endothelial growth factor receptor 2 (Homo sapiens, UniProt P35968)", "T6 sequence (P35968 whole entry)": "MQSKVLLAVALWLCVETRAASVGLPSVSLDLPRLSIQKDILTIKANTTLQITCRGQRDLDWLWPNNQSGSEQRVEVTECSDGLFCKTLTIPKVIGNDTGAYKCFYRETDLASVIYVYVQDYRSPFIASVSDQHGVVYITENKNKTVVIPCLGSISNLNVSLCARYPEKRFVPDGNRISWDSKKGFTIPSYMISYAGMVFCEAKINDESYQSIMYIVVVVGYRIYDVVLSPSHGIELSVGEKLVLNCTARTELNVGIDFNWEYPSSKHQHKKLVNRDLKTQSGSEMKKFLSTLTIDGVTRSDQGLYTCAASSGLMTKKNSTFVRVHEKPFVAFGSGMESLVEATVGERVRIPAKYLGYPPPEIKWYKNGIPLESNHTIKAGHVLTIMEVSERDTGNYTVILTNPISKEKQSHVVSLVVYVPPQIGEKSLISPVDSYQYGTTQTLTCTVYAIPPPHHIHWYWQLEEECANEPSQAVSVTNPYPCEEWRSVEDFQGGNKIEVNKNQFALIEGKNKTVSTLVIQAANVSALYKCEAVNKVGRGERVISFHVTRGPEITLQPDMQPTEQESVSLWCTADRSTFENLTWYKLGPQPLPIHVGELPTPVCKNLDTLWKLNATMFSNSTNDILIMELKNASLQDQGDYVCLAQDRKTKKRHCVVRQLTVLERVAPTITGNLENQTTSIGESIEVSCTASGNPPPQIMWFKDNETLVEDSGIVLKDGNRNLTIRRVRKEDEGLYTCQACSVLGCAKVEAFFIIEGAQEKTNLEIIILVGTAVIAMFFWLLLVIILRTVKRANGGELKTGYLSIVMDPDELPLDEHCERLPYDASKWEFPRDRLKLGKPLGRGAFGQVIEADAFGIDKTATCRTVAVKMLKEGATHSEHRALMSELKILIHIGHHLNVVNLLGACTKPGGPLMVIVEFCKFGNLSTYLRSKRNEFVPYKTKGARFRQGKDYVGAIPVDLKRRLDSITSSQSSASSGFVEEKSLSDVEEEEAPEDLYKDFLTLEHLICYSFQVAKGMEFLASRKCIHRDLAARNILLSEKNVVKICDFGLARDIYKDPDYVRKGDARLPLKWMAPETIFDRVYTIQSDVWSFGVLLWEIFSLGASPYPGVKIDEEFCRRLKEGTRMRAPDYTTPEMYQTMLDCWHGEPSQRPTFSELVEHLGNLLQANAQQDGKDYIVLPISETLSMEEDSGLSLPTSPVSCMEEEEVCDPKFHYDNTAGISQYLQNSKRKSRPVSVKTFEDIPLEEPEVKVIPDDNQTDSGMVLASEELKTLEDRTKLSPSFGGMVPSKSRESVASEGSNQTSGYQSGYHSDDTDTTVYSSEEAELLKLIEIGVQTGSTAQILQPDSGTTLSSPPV", "assay": "Inhibition of recombinant VEGFR2 (unknown origin) incubated for 60 mins by ELISA analysis"}, "[9]": {"molecular_target": "T7, Platelet-derived growth factor receptor beta (Homo sapiens, UniProt P09619)", "assay": "Inhibition of recombinant PDGFRbeta (unknown origin) incubated for 60 mins by ELISA analysis"}, "[10]": {"molecular_target": "T2, Fibroblast growth factor receptor 3", "assay": "Inhibition of recombinant FGFR3 (unknown origin) incubated for 60 mins by ELISA analysis"}, "[11]": {"molecular_target": "T1, Fibroblast growth factor receptor 1", "assay": "Inhibition of recombinant FGFR1 (unknown origin) incubated for 60 mins by ELISA analysis"}, "[12]": {"molecular_target": "T4, Fibroblast growth factor receptor 2", "assay": "Inhibition of recombinant FGFR2 (unknown origin) incubated for 60 mins by ELISA analysis"}, "[13]": {"molecular_target": "T8, Vascular endothelial growth factor receptor 1 (Homo sapiens, UniProt P17948)", "assay": "Inhibition of recombinant VEGFR1 (unknown origin) incubated for 60 mins by ELISA analysis"}, "[14]": {"molecular_target": "T1, Fibroblast growth factor receptor 1", "assay": "Inhibition of N-terminal 6-His tagged recombinant FGFR1 Kinase domain (unknown origin) expressed in baculovirus expression system incubated for 30 mins in the presence of [33p]-ATP by scintillation counting analysis"}, "[15]": {"molecular_target": "T6, Vascular endothelial growth factor receptor 2", "assay": "Inhibition of N-terminal 6-His tagged recombinant VEGFR2 Kinase domain (unknown origin) expressed in baculovirus expression system incubated for 30 mins in the presence of [33p]-ATP by scintillation counting analysis"}, "[16]": {"molecular_target": "T7, Platelet-derived growth factor receptor beta", "assay": "Inhibition of N-terminal 6-His tagged recombinant PDGFRbeta Kinase domain (unknown origin) expressed in baculovirus expression system incubated for 30 mins in the presence of [33p]-ATP by scintillation counting analysis"}, "[17]": {"molecular_target": "T2, Fibroblast growth factor receptor 3", "assay": "Inhibition of recombinant FGFR3 (unknown origin) in the presence of [p33]-ATP"}, "[18]": {"molecular_target": "T1, Fibroblast growth factor receptor 1", "assay": "Inhibition of recombinant FGFR1 (unknown origin) in the presence of [p33]-ATP"}, "[19]": {"molecular_target": "T4, Fibroblast growth factor receptor 2", "assay": "Inhibition of recombinant FGFR2 (unknown origin) in the presence of [p33]-ATP"}, "[20]": {"molecular_target": "T9, Fibroblast growth factor receptor substrate 2 (Homo sapiens, UniProt Q8WU20)", "T9 sequence (Q8WU20 whole entry)": "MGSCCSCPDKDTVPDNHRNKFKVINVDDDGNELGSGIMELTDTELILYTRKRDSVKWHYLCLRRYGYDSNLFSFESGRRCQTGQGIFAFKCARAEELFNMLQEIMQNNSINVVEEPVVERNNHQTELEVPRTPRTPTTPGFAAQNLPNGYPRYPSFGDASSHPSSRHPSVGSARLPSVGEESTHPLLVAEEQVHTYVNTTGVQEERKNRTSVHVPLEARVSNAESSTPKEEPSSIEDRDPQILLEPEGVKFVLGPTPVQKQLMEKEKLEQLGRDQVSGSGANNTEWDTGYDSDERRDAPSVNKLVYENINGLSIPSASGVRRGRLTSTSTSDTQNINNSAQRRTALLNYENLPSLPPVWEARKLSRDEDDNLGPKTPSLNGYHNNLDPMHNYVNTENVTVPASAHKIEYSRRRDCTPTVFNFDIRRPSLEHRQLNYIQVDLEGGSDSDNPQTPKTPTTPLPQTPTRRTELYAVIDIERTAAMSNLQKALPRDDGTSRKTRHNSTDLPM", "assay": "Inhibition of FRS2 phosphorylation at Tyr196 residue in human NCI-H1581 cells incubated for 20 mins by electrochemiluminescence method", "format": "cell-based"}, "[21]": {"molecular_target": "T9, Fibroblast growth factor receptor substrate 2", "assay": "Inhibition of FRS2 phosphorylation at Tyr196 residue in human RT-4 cells incubated for 20 mins by electrochemiluminescence method", "format": "cell-based"}, "[22]": {"molecular_target": "T6, Vascular endothelial growth factor receptor 2", "assay": "Inhibition of recombinant VEGFR2 (unknown origin) in the presence of [p33]-ATP"}, "[23]": {"molecular_target": "T3, Fibroblast growth factor receptor 4", "assay": "Inhibition of recombinant FGFR4 (unknown origin) in the presence of [p33]-ATP"}, "RT-4 [24]": {"test_system": "RT-4", "assay": "Antitumor activity against human RT-4 cells xenografted in mouse assessed as tumor growth inhibition at 40 mg/kg/day, po administered for 21 days relative to control", "format": "functional", "details": "RT-4, 504 h, time 21 day, read-out: TGI"}, "RT-4 [25]": {"test_system": "RT-4", "assay": "Antitumor activity against human RT-4 cells xenografted in mouse assessed as tumor growth inhibition at 20 mg/kg/day, po administered for 21 days relative to control", "format": "functional", "details": "RT-4, 504 h, time 21 day, read-out: TGI"}, "[26]": {"molecular_target": "T9, Fibroblast growth factor receptor substrate 2", "assay": "Inhibition of FRS2 phosphorylation at Tyr196 residue in human SNU-16 cells incubated for 20 mins by electrochemiluminescence method", "format": "cell-based"}, "[27]": {"molecular_target": "T8, Vascular endothelial growth factor receptor 1", "assay": "Inhibition of recombinant VEGFR1 (unknown origin) in the presence of [p33]-ATP"}, "[28]": {"molecular_target": "Vascular endothelial growth factor receptor 3 (Homo sapiens, UniProt P35916)", "assay": "Inhibition of recombinant VEGFR3 (unknown origin) in the presence of [p33]-ATP"}, "[29]": {"molecular_target": "T10, Receptor-type tyrosine-protein kinase FLT3 (Homo sapiens, UniProt P36888)", "T10 sequence (P36888 whole entry)": "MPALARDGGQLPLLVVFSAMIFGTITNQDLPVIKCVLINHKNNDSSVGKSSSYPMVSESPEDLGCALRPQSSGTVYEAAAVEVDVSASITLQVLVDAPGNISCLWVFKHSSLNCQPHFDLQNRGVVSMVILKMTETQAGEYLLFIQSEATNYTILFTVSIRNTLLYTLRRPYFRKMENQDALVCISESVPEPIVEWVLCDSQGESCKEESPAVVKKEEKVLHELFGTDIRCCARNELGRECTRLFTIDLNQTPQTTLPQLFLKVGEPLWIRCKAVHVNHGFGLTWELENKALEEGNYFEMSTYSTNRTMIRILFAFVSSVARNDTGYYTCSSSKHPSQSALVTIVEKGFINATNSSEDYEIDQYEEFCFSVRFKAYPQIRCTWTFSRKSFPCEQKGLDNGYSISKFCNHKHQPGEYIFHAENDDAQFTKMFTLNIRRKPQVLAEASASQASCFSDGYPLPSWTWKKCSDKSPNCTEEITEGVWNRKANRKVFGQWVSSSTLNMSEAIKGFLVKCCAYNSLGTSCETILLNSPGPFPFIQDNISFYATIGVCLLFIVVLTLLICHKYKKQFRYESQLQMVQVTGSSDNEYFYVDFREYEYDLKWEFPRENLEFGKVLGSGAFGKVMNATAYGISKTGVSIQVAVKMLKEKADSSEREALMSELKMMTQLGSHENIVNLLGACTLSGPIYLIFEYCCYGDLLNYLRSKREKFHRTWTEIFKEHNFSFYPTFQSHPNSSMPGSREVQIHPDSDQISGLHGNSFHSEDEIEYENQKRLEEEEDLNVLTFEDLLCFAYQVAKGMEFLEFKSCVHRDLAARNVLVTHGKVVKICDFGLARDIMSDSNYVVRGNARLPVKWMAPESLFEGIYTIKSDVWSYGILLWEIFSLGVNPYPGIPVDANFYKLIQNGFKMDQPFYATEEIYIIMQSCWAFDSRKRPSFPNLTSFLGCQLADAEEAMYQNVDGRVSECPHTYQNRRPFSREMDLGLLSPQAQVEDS", "assay": "Inhibition of His tagged recombinant human FLT3 (564 to 958 residues) expressed in baculovirus expression system incubated for […] in the presence of ATP by Z'-LYTE kinase assay"}, "[30]": {"molecular_target": "Platelet-derived growth factor receptor alpha (Homo sapiens, UniProt P16234)", "assay": "Inhibition of PDGFRalpha (unknown origin) incubated for […] in the presence of ATP by Z'-LYTE kinase assay"}}}
{"smiles": "C=CC(=O)Nc1ccc(CN(C(=O)Nc2c(Cl)c(OC)cc(OC)c2Cl)c2cc(Nc3ccc(N4CCN(C)CC4)cc3)ncn2)cc1", "values": [{"measurement": "IC50", "setting": "[1]", "value": 3, "unit": "nM"}, {"measurement": "IC50", "setting": "[2]", "value": 31, "unit": "nM"}, {"measurement": "IC50", "setting": "[3]", "value": 35, "unit": "nM"}, {"measurement": "IC50", "setting": "[4]", "value": 21, "unit": "nM"}, {"measurement": "IC50", "setting": "[5]", "value": 43, "unit": "nM"}]}
{"smiles": "COc1cc(OC)c(Cl)c(-c2ccc3c(NC(=O)c4ccc(N5CCNC(C)(C)C5)cc4)n[nH]c3n2)c1Cl", "note": "[SEGIGRATINIB]", "values": [{"measurement": "inhibition in vivo at 50 mg/kg", "setting": "NCI-H1581", "value": 96.4, "unit": "%"}]}
{"smiles": "COc1cc2ncnc(Oc3ccc(NC(=O)Nc4cccc(C(F)(F)F)c4)c4ccccc34)c2cc1OC", "values": [{"measurement": "IC50", "setting": "[6]", "value": 83.9, "unit": "nM"}, {"measurement": "IC50", "setting": "[7]", "value": 86.2, "unit": "nM"}]}
{"smiles": "CNC(=O)c1cccc2cc(Oc3ccnc(NC(=O)c4ccc(N5CCN(CCO)CC5)cc4)c3)ccc12", "values": [{"measurement": "IC50", "setting": "[8]", "value": 1.2, "unit": "nM"}, {"measurement": "IC50", "setting": "[9]", "value": 7.8, "unit": "nM"}, {"measurement": "IC50", "setting": "[10]", "value": 6.9, "unit": "nM"}, {"measurement": "IC50", "setting": "[11]", "value": 1.8, "unit": "nM"}, {"measurement": "IC50", "setting": "[12]", "value": 1.9, "unit": "nM"}, {"measurement": "IC50", "setting": "[13]", "value": 5.6, "unit": "nM"}]}
{"smiles": "O=C(O)CCc1c(/C=C2\\C(=O)Nc3ccc(F)cc32)[nH]c2c1C(=O)CCC2", "values": [{"measurement": "IC50", "setting": "[14]", "value": 260, "unit": "nM"}, {"measurement": "IC50", "setting": "[15]", "value": 25, "unit": "nM"}, {"measurement": "IC50", "setting": "[16]", "value": 42, "unit": "nM"}]}
{"smiles": "Cn1cc(-c2ccc3c(c2)ncn3-c2cc(NS(=O)(=O)C3CC3)cc(-c3ccc(F)cc3F)c2)cn1", "values": [{"measurement": "IC50", "setting": "[17]", "value": 6, "unit": "nM"}, {"measurement": "IC50", "setting": "[18]", "value": 11, "unit": "nM"}, {"measurement": "IC50", "setting": "[19]", "value": 16, "unit": "nM"}, {"measurement": "IC50", "setting": "[20]", "value": 93, "unit": "nM"}, {"measurement": "IC50", "setting": "[21]", "value": 89, "unit": "nM"}, {"measurement": "IC50", "setting": "[22]", "value": 9, "unit": "nM"}, {"measurement": "IC50", "setting": "[23]", "value": 35, "unit": "nM"}, {"measurement": "inhibition in vivo at 40 mg/kg/day", "setting": "RT-4 [24]", "value": 92, "unit": "%"}, {"measurement": "inhibition in vivo at 20 mg/kg/day", "setting": "RT-4 [25]", "value": 37, "unit": "%"}, {"measurement": "IC50", "setting": "[26]", "value": 59, "unit": "nM"}, {"measurement": "IC50", "setting": "[27]", "value": 26, "unit": "nM"}, {"measurement": "IC50", "setting": "[28]", "value": 5, "unit": "nM"}]}
{"smiles": "Cc1ccc(C(=O)Nc2ccc(CN3CCN(C)CC3)c(C(F)(F)F)c2)cc1C#Cc1cnc2[nH]ncc2c1", "note": "[OLVEREMBATINIB]", "values": [{"measurement": "IC50", "setting": "[29]", "value": 1.33, "unit": "nM"}, {"measurement": "IC50", "setting": "[30]", "value": 2.08, "unit": "nM"}]}
